Patent US9873667B2, “Arylsulfanyl compounds and compositions for delivering active agents” (EMISPHERE TECHNOLOGIES INC., priority 2006, dated 2018)
Each block holds one compound with its values, some of them ahead of it.

Assays:
Blood glucose levels = experiment: Oral delivery of insulin with delivery agent compound; blood glucose by glucometer; assay type: in vivo, male Sprague-Dawley rats
Description: Insulin stock solution (15 mg/ml) (Human zinc insulin, Calbiochem-Novabiochem Corp., La Jolla, Calif.) was prepared with deionized water. Oral dosing compositions containing 200 mg/kg of delivery agent compound and 0.5 mg/kg of insulin in aqueous solution were prepared with the delivery agent compound shown in Table 1 below. Either the sodium salt of the delivery agent compound was used or the free acid was converted to the sodium salt with one equivalent of sodium hydroxide.
The dosing solution was administered to fasted male Sprague-Dawley rats by oral gavage with an average weight of about 225-250 grams. Blood glucose levels were then determined by glucometer (One Touch Ultra®, LifeScan, Inc.) and compared to vehicle control (1 ml/kg of water). Samples were collected prior to dosing (time 0) and at 15, 30, 45 and 60 minutes after dosing. The % glucose reduction values in Table 1 are values found at the C minimum, and are an average % reduction with respect to the number of times the experiment was run for each delivery agent.
0.5 mg/kg of Insulin and 25-100 mg/kg of delivery agent compound (particular amount shown in Table 2 below) was administered to male Sprague-Dawley rats with an average weight of about 225-250 grams. The purpose of this test was to ascertain the dose response of the delivery agent compound. Glucose reduction was determined as set forth in connection with the data in Table 1.
Insulin Titrations were performed with Delivery Agent 29 in order to gauge the effect of varying dosages of insulin.

[1] = tested on: activated partial thromboplastin time (APTT); experiment: Intracolonic delivery of heparin with delivery agent; clotting time (APTT); assay type: in vivo, male Sprague-Dawley rats; conditions: Delivery Agent 50 mg/kg, USP Heparin 25 mg/kg; for Tmax: time of peak APTT
Description: Oral gavage and/or intracolonic (IC) dosing solutions containing delivery agent compound and heparin sodium USP were prepared in 25% aqueous propylene glycol. Either the sodium salt of the delivery agent compound was used or the free acid was converted to the sodium salt with one equivalent of sodium hydroxide. The delivery agent compound and heparin (about 166-182 IU/mg) were mixed by vortex as dry powders. This dry mixture was dissolved in 25% v/v aqueous propylene glycol, vortexed, and placed in a sonicator (about 37° C.). The pH was adjusted to about 7 (6.5-8.5) with aqueous NaOH (2N). The dosing solution was sonicated to produce a clear solution. The final volume was adjusted to about 3.0 ml.
Male Sprague-Dawley rats weighing between about 275-350 g were fasted for 24 hours and anesthetized with ketamine hydrochloride (88 mg/kg) intramuscularly immediately prior to dosing and again as needed to maintain anesthesia. A dosing group of five animals were administered one of the dosing solutions. For oral gavage dosing, an 11 cm Rusch 8 French catheter was adapted to a 1 ml syringe with a pipette tip. The syringe was filled with dosing solution by drawing the solution through the catheter, which was then wiped dry. The catheter was placed down the esophagus leaving 1 cm of tubing past the incisors. The dosing solution was administered by pressing the syringe plunger.
For intracolonic (IC) dosing, a 7.5 cm, 8 French Rusch catheter was adapted to a 1 ml syringe with a pipette tip. The dosing catheter was inserted into the colon through the anus until the tube was no longer visible. The dosing solution was expressed slowly into the colon by pressing the syringe plunger.
Citrated blood samples were collected by cardiac puncture following the administration of ketamine (88 mg/kg), typically at 0.25, 0.5, 1.0 and 1.5 hours after dosing. Heparin absorption was verified by an increase in clotting time measured by the activated partial thromboplastin time (APTT) according to the method of Henry, J. B., Clinical Diagnosis and Management by Laboratory Methods, Philadelphia, Pa., W.B. Saunders (1979), which is hereby incorporated by reference. Previous studies indicated baseline values of about 20 seconds. Results from the animals in each group were averaged for each time points and the highest of these averages (i.e. mean peak APTT) is reported.

[2] = Oral delivery of LHRH with delivery agent; plasma LHRH concentration; assay type: in vivo, male Sprague-Dawley rats; conditions: Delivery Agent: 200 mg/kg, LHRH: 1 mg/kg
Description: Oral gavage dosing solutions of delivery agent compound and LHRH in phosphate buffer were prepared by mixing. A solution of the delivery agent compound was made either with the sodium salt of the delivery agent compound or by converting the free acid to its sodium salt. A solution of the delivery agent compound was prepared in phosphate buffer and stirred, adding one equivalent of sodium hydroxide (1.0 N) when making the sodium salt. The final dosing solutions were prepared by mixing the delivery agent compound solution with a LHRH stock solution (2.75 ml with a concentration of 20 mg/ml in aqueous solution). The pH was adjusted, if necessary, to between about 7 and 8.8.
Male Sprague-Dawley rats weighing between about 250-300 g were fasted for 24 hours. A dosing group of five animals was administered one of the dosing solutions. An 11 cm Rusch 8 French catheter was adapted to a 1 ml syringe with a pipette tip. The syringe was filled with the dosing solution by drawing the solution through the catheter, which was then wiped dry. The catheter was placed down the esophagus leaving 1 cm of tubing past the incisors. The dosing solution was administered by pressing the syringe plunger.
Blood samples were collected through retroorbital bleeding of approximately 0.4 ml of blood volume using EDTA tubes at time=0 (pre-dose), 2, 10, 15 and 30 minutes. The five samples from each time period were pooled. Previous studies indicated baseline values of about zero. The maximum absorption at the Tmax is reported below in Table 7. As controls, 4-(3-methyl phenoxy) butyric acid (D.A. “B”), the mesylate salt of (4-(8-(2-hydroxyphenoxy)octyl) morpholine (D.A. “C”), 4-(4-(2-hydroxyphenoxy)butyl) morpholine (D.A. “D”), and 4-(6-(2-hydroxyphenoxy)hexyl) morpholine (D.A. “E”) were also administered according to the same protocol and their results are also shown in FIG. 6.

[3] = Oral delivery of heparin with delivery agent; plasma heparin concentration; assay type: in vivo, male Sprague-Dawley rats; conditions: Delivery Agent 200 mg/kg, Heparin 80 mg/kg
[4] = Oral delivery of caspofungin acetate with delivery agent; plasma caspofungin acetate concentration; assay type: in vivo, male Sprague-Dawley rats; conditions: Delivery Agent 200 mg/kg, caspofungin acetate: 25 mg/kg
Description: Oral gavage dosing solutions of delivery agent compound and caspofungin acetate (Merck & Co., Whitehouse Station, N.J.) in phosphate buffer were prepared by mixing. A solution of the delivery agent compound was made either with the sodium salt of the delivery agent compound or by converting the free acid to its sodium salt. A solution of the delivery agent compound was prepared in phosphate buffer and stirred, adding one equivalent of sodium hydroxide (1.0 N) when making the sodium salt. The final dosing solutions were prepared by mixing the delivery agent compound solution with a caspofungin acetate stock solution (2.5 ml with a concentration of 100 mg/ml in aqueous solution). The pH was adjusted, if necessary, to between about 7 and 8.8. Male Sprague-Dawley rats weighing between about 250-300 g were fasted for 24 hours. A dosing group of five animals was administered one of the dosing solutions. An 11 cm Rusch 8 French catheter was adapted to a 1 ml syringe with a pipette tip. The syringe was filled with the dosing solution by drawing the solution through the catheter, which was then wiped dry. The catheter was placed down the esophagus leaving 1 cm of tubing past the incisors. The dosing solution was administered by pressing the syringe plunger. Blood samples were collected through retroorbital bleeding at time=0 (pre-dose), 15, 30, 60, 240, and 480 minutes. […]

[5] = oral gavage, 200 mg/kg Delivery Agent Compound, 0.5 mg/kg Insulin, value at C minimum vs vehicle control
[6] = dose response, Delivery Agent Compound 25 mg/kg, Insulin 0.5 mg/kg
[7] = dose response, Delivery Agent Compound 50 mg/kg, Insulin 0.5 mg/kg
[8] = dose response, Delivery Agent Compound 100 mg/kg, Insulin 0.5 mg/kg

Tmax [1]: 30 min
melting point: 62 to 63 °C
Tmax [2]: 5 min
SMILES: COc1ccccc1SCCCCCCCC(=O)O [Compound 1, 8-(2-Methoxy-phenylsulfanyl)-octanoic acid]
% Glucose Reduction (Blood glucose levels; [5]): −0.2%
APTT (mean peak) [1]: 180 s

Tmax [3]: 45 min
melting point: 60 to 63 °C
SMILES: Cc1ccc(C)c(SCCCCCCCC(=O)O)c1 [Compound 2, 8-(2,5-Dimethyl-phenylsulfanyl)-octanoic acid]
% Glucose Reduction (Blood glucose levels; [6]): −10.0%

melting point: 81 to 82 °C
Tmax [2]: 5 min
SMILES: COc1ccccc1SCCCCCC(=O)O [Compound 3, 6-(2-Methoxy-phenylsulfanyl)-hexanoic acid]

melting point: 65 to 66 °C
Tmax [2]: 5 min
SMILES: COc1ccccc1SCCCCCCCCCC(=O)O [Compound 4, 10-(2-Methoxy-phenylsulfanyl)-decanoic acid]

melting point: 49 to 50 °C
Tmax [2]: 5 min
SMILES: O=C(O)CCCCCCCSc1ccccc1O [Compound 5, 8-(2-Hydroxy-phenylsulfanyl)-octanoic acid]
% Glucose Reduction (Blood glucose levels; [7]): −13.5%
% Glucose Reduction (Blood glucose levels; [8]): −18.2%

Tmax [3]: 15 min
melting point: 61 to 62 °C
Tmax [2]: 5 min
SMILES: Cc1ccc(C)c(SCCCCCC(=O)O)c1 [Compound 6, 6-(2,5-Dimethyl-phenylsulfanyl)-hexanoic acid]
% Glucose Reduction (Blood glucose levels; [7]): −15.8%
% Glucose Reduction (Blood glucose levels; [8]): −19.2%
% Glucose Reduction (Blood glucose levels; [5]): −9.8 ± 30.4%

Tmax [3]: 60 min
melting point: 61 to 62 °C
Tmax [2]: 5 min
SMILES: Cc1ccc(C)c(SCCCC(=O)O)c1 [Compound 7, 4-(2,5-Dimethyl-phenylsulfanyl)-butyric acid]

melting point: 58 to 59 °C
SMILES: O=C(O)CCCCCCCCCSc1ccccc1O [Compound 8, 10-(2-Hydroxy-phenylsulfanyl)-decanoic acid]
% Glucose Reduction (Blood glucose levels; [6]): −9.7%
% Glucose Reduction (Blood glucose levels; [7]): −30.5%

Tmax [1]: 30.0 min
melting point: 94 to 95 °C
SMILES: O=C(O)CCCCCCCSc1ccc(O)cc1 [Compound 11, 8-(4-Hydroxy-phenylsulfanyl)-octanoic acid]
APTT (mean peak) [1]: 300.0 s

Tmax [4]: 60 min
SMILES: COc1ccc(SCCCCC(=O)O)cc1 [Compound 14, 5-(4-Methoxy-phenylsulfanyl)-pentanoic acid]

melting point: 92 to 93 °C
SMILES: O=C(O)CCCCCCCSc1ccc(Cl)cc1 [Compound 33, 8-(4-Chloro-phenylsulfanyl)-octanoic acid]

melting point: 100 to 101 °C
SMILES: O=C(O)CCCSc1ccc(Cl)cc1 [Compound 34, 4-(4-Chloro-phenylsulfanyl)-butyric acid]

Tmax [1]: 30.0 min
melting point: 92 to 94 °C
SMILES: O=C(O)CCCCCSc1ccc(O)cc1 [Compound 35, 6-(4-Hydroxy-phenylsulfanyl)-hexanoic acid]
APTT (mean peak) [1]: 100.0 s

melting point: 73 to 74 °C
SMILES: Cc1ccc(C)c(SCC(=O)O)c1 [Compound 58, (2,5-Dimethyl-phenylsulfanyl)-acetic acid]
% Glucose Reduction (Blood glucose levels; [5]): −18.2%
